Measurements reported in patent US6737383B1, “Herbicidal oxadiazolidines” (priority 1999, dated 2004).

Assays:
giant foxtail = assay: Test B pre/postemergence giant foxtail; format: in vivo, Setaria faberii
How it was run: (§1)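 Herbicidal effect was estimated by eye on a ten-point control scale after plants spent twelve to sixteen days in a greenhouse following soil or foliar treatment. Foliar sprays targeted plants at one to four leaves; all doses were formulated in a non-phytotoxic solvent with surfactant.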

morningglory = assay: Test B pre/postemergence morningglory; format: in vivo, Ipomoea hederacea
How it was run: as §1

pigweed = assay: Test B pre/postemergence pigweed; format: in vivo, Amaranthus retroflexus
How it was run: as §1

rape = assay: Test B pre/postemergence rape; format: in vivo, Brassica napus
How it was run: as §1

winter wheat [1] = assay: Test E winter wheat; format: in vivo, Triticum aestivum; details: Postemergence; for Plant response rating, Wheat (winter): 0 to 100 scale
How it was run: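 Visual evaluation versus untreated controls after about 21 to 28 days in the greenhouse. Compound was in a surfactant-containing non-phytotoxic solvent; postemergence plants were treated at the 1- to 4-leaf stage, grown in a 60:40 sandy loam and potting mix blend.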

blackgrass = assay: Test E blackgrass; format: in vivo, Alopecurus myosuroides; details: Preemergence
green foxtail = assay: Test E green foxtail; format: in vivo, Setaria viridis; details: Preemergence
Italian ryegrass = assay: Test E Italian ryegrass; format: in vivo, Lolium multiflorum; details: Preemergence
winter wheat [2] = assay: Test E winter wheat; format: in vivo, Triticum aestivum; details: Preemergence
wild oat = assay: Test E wild oat; format: in vivo, Avena fatua; details: Preemergence
winter barley = assay: Test E winter barley; format: in vivo, Hordeum vulgare; details: Preemergence
[3] = Postemergence, Rate 125 g/ha, scale of 0 to 10 where 0 is no effect and 10 is complete control
[4] = Preemergence, Rate 62 g/ha, scale of 0 to 10 where 0 is no effect and 10 is complete control
[5] = Preemergence, Rate 125 g/ha, 0 is no effect, 10 is complete control
[6] = Preemergence, Rate 250 g/ha, scale 0 to 10, 0 is no effect, 10 is complete control
[7] = Preemergence, Rate 500 g/ha, scale 0 to 10 (0 no effect, 10 complete control)
[8] = Rate 62 g/ha, Postemergence, scale of 0 to 10 where 0 is no effect and 10 is complete control
[9] = Rate 250 g/ha, Postemergence, scale 0 to 10, 0 is no effect, 10 is complete control
[10] = Rate 500 g/ha, Postemergence, scale 0 to 10
[11] = Rate 62 g/ha, 0 to 100 scale, 0 no effect, 100 complete control
[12] = Rate 125 g/ha, 0 to 100 scale (0 no effect, 100 complete control)
[13] = Rate 500 g/ha, 0 to 100 scale where 0 is no effect and 100 is complete control

Cc1nsc(C)c1-n1c(=O)on(C(=O)N(c2ccc(F)cc2F)C(C)C)c1=O [Compound 158]
Giant foxtail plant response rating (giant foxtail; [3]): 0 | Giant foxtail plant response rating (giant foxtail; [4]): 3 | Giant foxtail plant response rating (0 to 10 scale) (giant foxtail; [5]): 4 | Giant foxtail plant response rating (giant foxtail; [6]): 7 | Giant foxtail plant response rating (giant foxtail; [7]): 8 | Giant foxtail plant response rating (giant foxtail; [8]): 0 | Plant response rating, Giant foxtail (giant foxtail; [9]): 4 | Giant foxtail plant response rating (giant foxtail; [10]): 5 | Morningglory plant response rating (morningglory; [3]): 2 | Morningglory plant response rating (morningglory; [4]): 0 | Morningglory plant response rating (0 to 10 scale) (morningglory; [5]): 0 | Morningglory plant response rating (morningglory; [6]): 1 | Morningglory plant response rating (morningglory; [7]): 2 | Morningglory plant response rating (morningglory; [8]): 0 | Plant response rating, Morningglory (morningglory; [9]): 2 | Morningglory plant response rating (morningglory; [10]): 2 | Redroot pigweed plant response rating (pigweed; [3]): 2 | Redroot pigweed plant response rating (pigweed; [4]): 0 | Redroot pigweed plant response rating (0 to 10 scale) (pigweed; [5]): 0 | Redroot pigweed plant response rating (pigweed; [6]): 0 | Redroot pigweed plant response rating (pigweed; [7]): 2 | Redroot pigweed plant response rating (pigweed; [8]): 0 | Plant response rating, Redroot pigweed (pigweed; [9]): 2 | Redroot pigweed plant response rating (pigweed; [10]): 4 | Rape plant response rating (rape; [3]): 0 | Rape plant response rating (rape; [4]): 0 | Rape plant response rating (0 to 10 scale) (rape; [5]): 0 | Rape plant response rating (rape; [6]): 0 | Rape plant response rating (rape; [7]): 0 | Rape plant response rating (rape; [8]): 0 | Plant response rating, Rape (rape; [9]): 0 | Rape plant response rating (rape; [10]): 0 | Plant response rating, Wheat (winter) (winter wheat [1]; Rate 62 g/ha): 10 | Plant response rating, Wheat (winter) (winter wheat [1]; Rate 125 g/ha): 15 | Plant response rating, Wheat (winter) (winter wheat [1]; Rate 500 g/ha, 0 no effect, 100 complete control): 30 | Wheat (winter) plant response rating (winter wheat [1]; Rate 250 g/ha, 0 to 100 scale where 0 is no effect and 100 is complete control): 40 | Plant response rating, Blackgrass (blackgrass; [11]): 10 | Plant response rating, Blackgrass (blackgrass; [12]): 20 | Blackgrass plant response rating (0 to 100 scale) (blackgrass; Rate 250 g/ha): 50 | Plant response rating, Blackgrass (blackgrass; [13]): 50 | Plant response rating, Green foxtail (green foxtail; [11]): 0 | Plant response rating, Green foxtail (green foxtail; [12]): 10 | Green foxtail plant response rating (0 to 100 scale) (green foxtail; Rate 250 g/ha): 20 | Plant response rating, Green foxtail (green foxtail; [13]): 50 | Plant response rating, I. Ryegrass (Italian ryegrass; [11]): 10 | Plant response rating, I. Ryegrass (Italian ryegrass; [12]): 20 | I. Ryegrass plant response rating (0 to 100 scale) (Italian ryegrass; Rate 250 g/ha): 50 | Plant response rating, I. Ryegrass (Italian ryegrass; [13]): 50 | Plant response rating, Wheat (winter) (winter wheat [2]; [11]): 0 | Plant response rating, Wheat (winter) (winter wheat [2]; [12]): 10 | Wheat (winter) plant response rating (0 to 100 scale) (winter wheat [2]; Rate 250 g/ha): 30 | Plant response rating, Wild oat (wild oat; [11]): 50 | Plant response rating, Wild oat (wild oat; [12]): 50 | Wild oat plant response rating (0 to 100 scale) (wild oat; Rate 250 g/ha): 50 | Plant response rating, Wild oat (wild oat; [13]): 60 | Plant response rating, Barley (winter) (winter barley; [11]): 10 | Plant response rating, Barley (winter) (winter barley; [12]): 20 | Barley (winter) plant response rating (0 to 100 scale) (winter barley; Rate 250 g/ha): 30 | Plant response rating, Barley (winter) (winter barley; [13]): 30
